Source: PubChem BioAssay (NCI)
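Cultured in 96-well plates, cells were exposed to test compound for 48 hours across five concentrations. Here, GI50 denotes the concentration required for 50% inhibition of growth. The concentration for full growth arrest is given as TGI.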

Assays:
Assay in all cases: DTP human tumour cell line panel, 48 h
[1] = system: HCT-15 colon
[2] = system: SW-620 colon
[3] = system: 786-0 renal
[4] = system: DU-145 prostate
[5] = system: MALME-3M melanoma
[6] = system: NCI/ADR-RES ovarian
[7] = system: M14 melanoma
[8] = system: MDA-MB-435
[9] = system: SK-MEL-5 melanoma
[10] = system: UACC-257 melanoma
[11] = system: U251 CNS
[12] = system: CCRF-CEM leukemia
[13] = system: ACHN renal
[14] = system: KM12 colon
[15] = system: OVCAR-5 ovarian
[16] = system: SF-539 CNS
[17] = system: NCI-H522 lung
[18] = system: SF-295 CNS
[19] = system: OVCAR-4 ovarian
[20] = system: HOP-62 NSCLC
[21] = system: SK-OV-3 ovarian
[22] = system: NCI-H23 lung
[23] = system: K-562 leukemia
[24] = system: SNB-75 CNS
[25] = system: COLO 205 colon
[26] = system: HT29 colon
[27] = system: BT-549 breast
[28] = system: HCC-2998 colon
[29] = system: SK-MEL-2 melanoma
[30] = system: A549 NSCLC
[31] = system: RPMI-8226 leukemia
[32] = system: UO-31 renal
[33] = system: RXF 393 renal
[34] = system: SF-268 CNS
[35] = system: IGROV1 ovarian
[36] = system: HOP-92 NSCLC
[37] = system: NCI-H226 lung
[38] = system: HS 578T breast
[39] = system: CAKI-1 renal
[40] = system: OVCAR-3 ovarian
[41] = system: TK-10 renal
[42] = system: SNB-19 CNS
[43] = system: SK-MEL-28 melanoma
[44] = system: HL-60(TB) leukemia
[45] = system: PC-3 prostate
[46] = system: T-47D breast
[47] = system: UACC-62 melanoma
[48] = system: SR leukemia
[49] = system: MOLT-4 leukemia
[50] = system: MCF7 breast
[51] = system: NCI-H460 lung
[52] = system: SN12C renal
[53] = system: LOX IMVI melanoma
[54] = system: OVCAR-8 ovarian
[55] = system: A498 renal
[56] = system: HCT-116 colon
[57] = system: MDA-MB-231 breast

`CCCC[n+]1c(/C=C\c2c(OC)cc(OC)cc2OC)ccc2ccccc21` was tested, and the GI50 [1] was 2840 nM, the TGI [1] was 12300 nM and the GI50 [2] was 814 nM. For the same compound, the TGI [2] was 10000 nM, the GI50 [3] was 2840 nM and the TGI [3] was 13000 nM. It also gave a GI50 [4] of 1040 nM, a TGI [4] of 11100 nM and a GI50 [5] of 362 nM. For the same compound, the TGI [5] was 2070 nM, the GI50 [6] was 15900 nM and the TGI [6] was > 71900 nM. It also gave a GI50 [7] of 1180 nM, a TGI [7] of 2810 nM and a GI50 [8] of 393 nM. It also gave a TGI [8] of 1870 nM, a GI50 [9] of 299 nM and a TGI [9] of 1290 nM. For the same compound, the GI50 [10] was 380 nM, the TGI [10] was 2790 nM and the GI50 [11] was 353 nM. For the same compound, the TGI [11] was 3660 nM, the GI50 [12] was 1480 nM and the TGI [12] was 18400 nM. It also gave a GI50 [13] of 3010 nM, a TGI [13] of 11800 nM and a GI50 [14] of 345 nM. It also gave a TGI [14] of 1590 nM, a GI50 [15] of 2260 nM and a TGI [15] of 10300 nM. The GI50 [16] was 1440 nM, the TGI [16] was 4650 nM and the GI50 [17] was 678 nM. It also gave a TGI [17] of 3070 nM, a GI50 [18] of 802 nM and a TGI [18] of 3250 nM. The GI50 [19] was 1680 nM, the TGI [19] was 13600 nM and the GI50 [20] was 2580 nM. It also gave a TGI [20] of 10500 nM, a GI50 [21] of 1980 nM and a TGI [21] of 8830 nM. For the same compound, the GI50 [22] was 779 nM, the TGI [22] was 8170 nM and the GI50 [23] was 294 nM. The TGI [23] was > 38600 nM, the GI50 [24] was 1570 nM and the TGI [24] was 8210 nM. For the same compound, the GI50 [25] was 332 nM, the TGI [25] was 1190 nM and the GI50 [26] was 663 nM. It also gave a TGI [26] of 4090 nM, a GI50 [27] of 738 nM and a TGI [27] of 3190 nM. It also gave a GI50 [28] of 946 nM, a TGI [28] of 7830 nM and a GI50 [29] of 1080 nM. For the same compound, the TGI [29] was 2740 nM, the GI50 [30] was 1180 nM and the TGI [30] was 10500 nM. It also gave a GI50 [31] of 279 nM, a TGI [31] of 2730 nM and a GI50 [32] of 2220 nM. For the same compound, the TGI [32] was 8260 nM, the GI50 [33] was 1590 nM and the TGI [33] was 5870 nM. It also gave a GI50 [34] of 2030 nM, a TGI [34] of 10300 nM and a GI50 [35] of 1090 nM. For the same compound, the TGI [35] was 6700 nM, the GI50 [36] was 502 nM and the TGI [36] was 4800 nM. The GI50 [37] was 1920 nM, the TGI [37] was 12600 nM and the GI50 [38] was 1280 nM. For the same compound, the TGI [38] was 8640 nM, the GI50 [39] was 2730 nM and the TGI [39] was 11500 nM. For the same compound, the GI50 [40] was 515 nM, the TGI [40] was 2570 nM and the GI50 [41] was 1550 nM. It also gave a TGI [41] of 6260 nM, a GI50 [42] of 604 nM and a TGI [42] of 6790 nM. For the same compound, the GI50 [43] was 601 nM, the TGI [43] was 2750 nM and the GI50 [44] was 241 nM. The TGI [44] was 1390 nM, the GI50 [45] was 737 nM and the TGI [45] was 5710 nM. For the same compound, the GI50 [46] was 205 nM, the TGI [46] was 2060 nM and the GI50 [47] was 777 nM. It also gave a TGI [47] of 2340 nM, a GI50 [48] of 306 nM and a TGI [48] of 30300 nM. It also gave a GI50 [49] of 1640 nM, a TGI [49] of 8920 nM and a GI50 [50] of 494 nM. For the same compound, the TGI [50] was 4730 nM, the GI50 [51] was 574 nM and the TGI [51] was 2830 nM. The GI50 [52] was 728 nM, the TGI [52] was 5770 nM and the GI50 [53] was 827 nM. For the same compound, the TGI [53] was 2580 nM, the GI50 [54] was 613 nM and the TGI [54] was 7690 nM. For the same compound, the GI50 [55] was 157 nM, the TGI [55] was 2870 nM and the GI50 [56] was 413 nM. It also gave a TGI [56] of 3480 nM, a GI50 [57] of 1420 nM and a TGI [57] of 4620 nM.
